Assay results taken from patent publication US12240840B2, “Amide-substituted heterocyclic compounds for the treatment of conditions related to the modulation of IL-12, IL-23 and/or IFN-alpha” (BRISTOL-MYERS SQUIBB COMPANY, priority 2018, dated 2025).

What follows are molecules tested on IFNα-induced pSTAT5 (pY694) in CD3 positive cells of human whole blood (assay: IFNα-Induced STAT Phosphorylation in Human Whole Blood). Conditions: 1 h compound incubation, 1000 U/mL recombinant human IFNα A/D for 15 min, pSTAT5 in CD3 positive population, read-out: Human WB IFNα-Induced Stat Phosph. (IC50).
Type: cell-based
How it was run: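 Read-out is median fluorescence intensity of pSTAT5 (pY694) in the CD3-positive gate, by flow cytometry after fix/lyse and permeabilization. Before that, whole human blood anticoagulated with EDTA or ACD-A received compound for an hour and 1000 U/mL IFNα A/D for 15 min.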

Row | IC50 [nM] | Compound
1 | 3120 | [2H]C([2H])([2H])NC(=O)c1nnc(NC(=O)C2CC2)cc1Nc1cccc(-c2cnn(CCNC(C)=O)c2)c1OC [Example 563, 4-((3-(1-(2-acetamidoethyl)-1H-pyrazol-4-yl)-2-methoxyphenyl)amino)-6-(cyclopropanecarboxamido)-N-(methyl-d3)pyridazine-3-carboxamide]

Same assay, conditions: Homo sapiens, 1 h compound incubation, 1000 U/mL recombinant human IFNα A/D for 15 min, pSTAT5 in CD3 positive population, read-out: Human WB IFNα-Induced Stat Phosph. (IC50)

Row | IC50 [nM] | Compound
2 | 2410 | [2H]C([2H])([2H])NC(=O)c1nnc(NC(=O)C2CC2)cc1Nc1cccc(-c2cnn(CCNC(=O)C3(C#N)CC3)n2)c1OC [Example 437]
3 | 1130 | [2H]C([2H])([2H])NC(=O)c1nnc(NC(=O)C2CC2)cc1Nc1cccc(-c2nc(CN3CCN(C(=O)NCC)CC3)no2)c1OC [Example 136]
4 | 3800 | COc1c(Nc2cc(NC3CC3)nnc2C(N)=O)cccc1-c1noc(CNS(C)(=O)=O)n1 [Example 118]
5 | 2730 | [2H]C([2H])([2H])NC(=O)c1nnc(NC(=O)C2CC2)cc1Nc1cccc(-c2nc(CNC(=O)CN3CCNCC3)no2)c1OC [Example 162]
6 | 180 | [2H]C([2H])([2H])NC(=O)c1nnc(Nc2cnn(C)n2)cc1Nc1cccc(-c2ncc(C(C)O)s2)c1OC (stereo not shown) [Example 385]
7 | 420 | [2H]C([2H])([2H])NC(=O)c1nnc(NC(=O)C2CC2)cc1Nc1cccc(-c2ccn(CCNS(C)(=O)=O)n2)c1OC [Example 466]
8 | 240 | [2H]C([2H])([2H])NC(=O)c1nnc(NC(=O)C2CC2)cc1Nc1cccc(-c2cc(C(=O)N3C[C@@H](C)O[C@@H](C)C3)n(C)n2)c1OC [Example 525]
9 | 570 | [2H]C([2H])([2H])NC(=O)c1nnc(Nc2ccc(OC)nn2)cc1Nc1cccc(-c2ncc(CN)s2)c1OC [Example 389]
10 | 250 | [2H]C([2H])([2H])NC(=O)c1nnc(NC(=O)C2CC2)cc1Nc1cccc(-c2noc(C(=O)NCCOC)n2)c1OC [Example 19]
11 | 100 | [2H]C([2H])([2H])NC(=O)c1nnc(NC(=O)C2CC2)cc1Nc1cccc(-c2nc(CN3CCN(C(=O)C4(C#N)CC4)CC3)no2)c1OC [Example 133]
12 | 11 | [2H]C([2H])([2H])NC(=O)c1cnc(NC(=O)C2CC2)cc1Nc1cccc(-c2noc(CN(C)S(C)(=O)=O)n2)c1OC [Example 94]
13 | 16 | COc1c(Nc2cc(NC(=O)C3CC3)nnc2C(N)=O)cccc1-c1noc(CN(C)S(=O)(=O)C2CC2)n1 [Example 9]
14 | 620 | [2H]C([2H])([2H])NC(=O)c1cnc(NC(=O)C2CC2)cc1Nc1cccc(-c2nc(CCOC(C)(C)C)no2)c1OC [Example 227]
15 | 670 | [2H]C([2H])([2H])NC(=O)c1nnc(Nc2cc(C(C)(C)O)ccn2)cc1Nc1cccc(-c2cn(CCN3CCOCC3)nn2)c1OC [Example 425]
16 | 200 | [2H]C([2H])([2H])NC(=O)c1nnc(NC(=O)C2CC2)cc1Nc1cccc(-c2nc(CN3CCN(C)CC3)no2)c1OC [Example 180]
17 | 1160 | [2H]C([2H])([2H])NC(=O)c1cnc(NC(=O)C2CC2)cc1Nc1cccc(-c2cnn(CCNC(=O)CC#N)n2)c1OC [Example 440]
18 | 2000 | [2H]C([2H])([2H])NC(=O)c1cnc(Nc2cc(C(C)(C)O)ccn2)cc1Nc1cc(F)cc(-c2csc(C(=O)NCCOC)n2)c1OC [Example 573]
19 | 690 | [2H]C([2H])([2H])NC(=O)c1nnc(NC(=O)C2CC2)cc1Nc1cccc(-c2nc(C(=O)N(C)C)cs2)c1OC [Example 276]
20 | 160 | [2H]C([2H])([2H])NC(=O)c1nnc(NC(=O)C2CC2)cc1Nc1cccc(-c2ncc(C(=O)N3CCC3C)s2)c1OC (stereo not shown) [Example 328]
21 | 160 | [2H]C([2H])([2H])NC(=O)c1nnc(NC(=O)C2CC2)cc1Nc1cccc(-c2ncc(C(=O)N(C)C(C)C)s2)c1OC [Example 292]
22 | 260 | [2H]C([2H])([2H])NC(=O)c1nnc(NC(=O)C2CC2)cc1Nc1cccc(-c2ncc(C(=O)NCCCC)s2)c1OC [Example 314]
23 | 560 | [2H]C([2H])([2H])NC(=O)c1nnc(NC(=O)C2CC2)cc1Nc1cccc(-c2cc(C(=O)N3CCS(=O)(=O)CC3)n(C)n2)c1OC [Example 455, 6-(cyclopropanecarboxamido)-4-((3-(5-(1,1-dioxidothiomorpholine-4-carbonyl)-1-methyl-1H-pyrazol-3-yl)-2-methoxyphenyl)amino)-N-(methyl-d3)pyridazine-3-carboxamide]
24 | 9420 | [2H]C([2H])([2H])NC(=O)c1nnc(NC(=O)C2CC2)cc1Nc1cccc(-c2nc(CNC(=O)CN3CCN(C(=O)OC(C)(C)C)CC3)no2)c1OC [Example 161]
25 | 460 | [2H]C([2H])([2H])NC(=O)c1cnc(NC(=O)CC)cc1Nc1cccc(-c2noc(COCC)n2)c1OC [Example 87]
26 | 22 | [2H]C([2H])([2H])NC(=O)c1nnc(NC(=O)C2CC2)cc1Nc1cccc(-c2ncc(C(=O)N3CCC(N(C)C)CC3)s2)c1OC [Example 315]
27 | 1110 | [2H]C([2H])([2H])NC(=O)c1nnc(NC(=O)C2CC2)cc1Nc1cccc(-c2ccn(CCNC(=O)OC(C)(C)C)n2)c1OC [Example 464]
28 | 160 | [2H]C([2H])([2H])NC(=O)c1nnc(NC(=O)C2CC2)cc1Nc1cccc(-c2noc(C(CC)C(=O)N3CCOCC3)n2)c1OC (stereo not shown) [Example 45]

Row | IC50 [nM] | Compound
29 | 820 | COc1c(Nc2cc(N)nnc2C(N)=O)cccc1-c1noc(CN2CCOCC2)n1 [Example 107]
30 | 30 | [2H]C([2H])([2H])NC(=O)c1nnc(NC(=O)C2CC2)cc1Nc1cccc(-c2noc(CN3CCN(S(C)(=O)=O)CC3)n2)c1OC [Example 15]
31 | 120 | [2H]C([2H])([2H])NC(=O)c1cnc(Nc2cnn(C)n2)cc1Nc1cc(F)cc(-c2cc(C(=O)N(C)C)n(C)n2)c1OC [Example 553]
32 | 250 | [2H]C([2H])([2H])NC(=O)c1nnc(NC(=O)C2CC2)cc1Nc1cc(F)cc(-c2cc(C(=O)N3CC4CN(C)CC4C3)n(C)n2)c1OC (stereo not shown) [Example 496]
33 | 150 | [2H]C([2H])([2H])NC(=O)c1nnc(NC(=O)C2CC2)cc1Nc1cccc(-c2cc(C(=O)N3CCNCC3)n(C)n2)c1OC [Example 492]
34 | 590 | [2H]C([2H])([2H])NC(=O)c1nnc(NC(=O)C2CC2)cc1Nc1cccc(-c2cn(CCN3CCOCC3)nn2)c1OC [Example 422, 6-(cyclopropanecarboxamido)-4-((2-methoxy-3-(1-(2-morpholinoethyl)-1H-1,2,3-triazol-4-yl)phenyl)amino)-N-(methyl-d3)pyridazine-3-carboxamide]
35 | 270 | [2H]C([2H])([2H])NC(=O)c1cnc(NC(=O)C2CC2)cc1Nc1cccc(-c2cnn(CCNC(=O)C(C)(C)O)n2)c1OC [Example 443]
36 | 130 | [2H]C([2H])([2H])NC(=O)c1nnc(NC(=O)C2CC2)cc1Nc1cccc(-c2noc(C(C)C(=O)N3CCOCC3)n2)c1OC (stereo not shown) [Example 29]
37 | 980 | [2H]C([2H])([2H])NC(=O)c1nnc(NC(=O)C2CC2)cc1Nc1cccc(-n2cc(CO)nn2)c1OC [Example 3]
38 | 40 | [2H]C([2H])([2H])NC(=O)c1nnc(NC(=O)C2CC2)cc1Nc1cccc(-c2ncc(C(=O)NCC(C)(C)CN(C)C)s2)c1OC [Example 339]
39 | 210 | [2H]C([2H])([2H])NC(=O)c1nnc(NC(=O)C2CC2)cc1Nc1cccc(-c2nc(CNS(C)(=O)=O)no2)c1OC [Example 146]
40 | 240 | [2H]C([2H])([2H])NC(=O)c1nnc(NC(=O)C2CC2)cc1Nc1cccc(-c2nc(C)c(C(=O)N3CCNC(=O)C3)s2)c1OC [Example 363]
41 | 1500 | [2H]C([2H])([2H])NC(=O)c1nnc(NC(=O)C2CC2)cc1Nc1cccc(-c2cc(C(=O)NC(C)C)n(C)n2)c1OC [Example 535]
42 | 130 | COc1c(Nc2cc(NC(=O)C3CC3)nnc2C(N)=O)cccc1-c1ncc(C(=O)N2CCC(CO)CC2)o1 [Example 418]
43 | 2890 | [2H]C([2H])([2H])NC(=O)c1nnc(NC(=O)C2CC2)cc1Nc1cccc(-c2cnn(CCNC(=O)CC3CCCO3)n2)c1OC (stereo not shown) [Example 438]
44 | 90 | COc1c(Nc2cc(NC(=O)C3CC3)nnc2C(N)=O)cccc1-c1ncc(C(=O)NC2CCC(N(C)C)CC2)s1 (stereo not shown) [Example 405]
45 | 4440 | [2H]C([2H])([2H])NC(=O)c1cnc(NC(=O)C2CC2)cc1Nc1cccc(-c2nc(C3(NC(=O)OC(C)(C)C)CC3)no2)c1OC [Example 213]
46 | 21 | [2H]C([2H])([2H])NC(=O)c1cnc(NC(=O)C2CC2)cc1Nc1cccc(-c2noc(CN3CCN(S(C)(=O)=O)CC3)n2)c1OC [Example 95]
47 | 320 | [2H]C([2H])([2H])NC(=O)c1cnc(NC(=O)C2CC2)cc1Nc1cccc(-c2nc(COCc3ccccc3)no2)c1OC [Example 216]
48 | 720 | [2H]C([2H])([2H])NC(=O)c1nnc(NC(=O)C2CC2)cc1Nc1cccc(-c2cnn(CCN)c2)c1OC [Example 557]
49 | 190 | [2H]C([2H])([2H])NC(=O)c1nnc(NC(=O)C2CC2)cc1Nc1cccc(-c2cnn(CC(=O)NCCO)n2)c1OC [Example 429]
50 | 130 | [2H]C([2H])([2H])NC(=O)c1nnc(NC(=O)C2CC2)cc1Nc1cccc(-c2ncc(C(=O)NCCNC(C)=O)s2)c1OC [Example 304]
51 | 100 | [2H]C([2H])([2H])NC(=O)c1nnc(NC(=O)C2CC2)cc1Nc1cccc(-c2ncc(C(=O)NCCC(=O)OC)s2)c1OC [Example 290]
52 | 30 | COc1c(Nc2cc(NC(=O)C3CC3)nnc2C(N)=O)cccc1-c1noc(CC(=O)N2CCOCC2)n1 [Example 36]
53 | 460 | [2H]C([2H])([2H])NC(=O)c1nnc(NC(=O)C2CC2)cc1Nc1cc(F)cc(-c2cc(C(=O)N(C)CCCN(C)C)n(C)n2)c1OC [Example 510]
54 | 170 | [2H]C([2H])([2H])NC(=O)c1nnc(NC(=O)C2CC2)cc1Nc1cccc(-c2noc(C(CCC)C(=O)NCCOC)n2)c1OC (stereo not shown) [Example 43]
55 | 290 | [2H]C([2H])([2H])NC(=O)c1nnc(NC(=O)C2CC2)cc1Nc1cccc(-c2nc([C@@H](N)CO)no2)c1OC [Example 201]
